Experiments:
[1] = tested on: basal keratinocytes of 3D-Epidermal skin models; experiment: Click-iT EdU proliferation rate of basal keratinocytes; assay type: cell-based, human; settings: topical, 30 μl of 5% aqueous solution
Protocol: (§1) Experimental application of test-products: In this study 30 μl of a 5% aqueous solution of the test substances were applied as follows using a calibrated pipette:
Proliferation testing of basal Keratinocytes (Example 2): topically with air exposed models as reference and analysis time points for proliferation rate after 3 and 6 days.
(§2) Application was done in duplicates (2 models) at all time points and models were cultured and analyzed in parallel under identical conditions.
EpiDerm 3D-Epidermal skin models: Nowadays in vitro test procedures are a very good alternative to animal experiments and become increasingly important for the cosmetic industry. For cosmetic products which are used over a longer period, dermatological tests for harmlessness are an essential prerequisite for a high application safety and customer satisfaction. During the development of new cosmetic products biological effects of particular active ingredients or complete formulations turn into focus of cosmetic interests. The human EpiDerm skin model is an in vitro reconstructed multilayered epithelial tissue which is cultured of normal human keratinocytes. […] The model is mitotically as well as metabolically active and expresses typical differentiation marker like pro-fillagrin 1 and cytokeratin 1/10. […]
Evaluation of the proliferation rate: Out of every used skin model, 6 mm punch biopsies were taken, embedded in O.C.T.™, cryoconserved in the gaseous phase of liquid nitrogen and subsequently cut into 5-6 μm sections. Nuclei from every section were counted (blue fluorescence, DAPI) and the percentage of proliferating nuclei (red fluorescence) was determined.
Fluorescence microscopy: Click-iT®-EdU tagged cells were stained in red (λex 594 nm). […] Click-iT®-EdU and DAPI stained cells were recorded solely and merged subsequently. The fluorescence analysis and documentation was performed with the ZEISS, Axio Scope A1HAL 100. […]

human skin [2] = experiment: In-vivo skin moisture (Corneometer CM 825); settings: 4 weeks; for improvement in skin moisture, treated area: twice a day
Description: (§3) Panelists: The test panel included 5 adult female volunteers with dry skin, elasticity less than average and crow's feet wrinkles next to the eyes. At the beginning of the application test all subjects have been checked by a dermatologist. Only subjects were allowed to join the trial with no pathological skin modifications diagnosed. During the application test all subjects had in case of acute skin irritations access to daily consultations from an attending medical specialist who was accompanying the test. Daily consultations about the skin conditions through the test-accompanying medical doctor were possible.
(§4) Experimental application of test-products: Test areas were around 3 cm in diameter. The test products were applied on the volar forearm (5% and 10% aqueous solutions; skin elasticity and hydration tests) as well as the crows's feet wrinkles (5% aqueous solution). The application of the preparations have been done twice a day during the whole test period (4 weeks). The subjects have been instructed not to use other care products in this test area. Untreated skin areas were used as control.
Skin moisture: this aspect was tested using the Corneometer CM 825 (Firma Courage+Khazaka). The test products were applied twice a day on the relevant pre-determined skin areas during the application period. The test persons were acclimatized for 45 minutes at a temperature of 22 degrees centigrade and 60% relative humidity before every measurement, then, the skin measurement values were measured at three different places within the respective testing areas. The recorded values were averaged. Untreated skin close to the test area was used as the control measurement area. Measurements were taken before the application and after four weeks of application. All measurements were performed at least 10-12 hours after the last application of the formerly used product resp. the test product.

crow's feet wrinkles = experiment: In-vivo single wrinkle depth (PRIMOS optical 3D measurement); set-up: species or system human; settings: 5% aqueous solution, four weeks, 5 subjects
Description: as §3
Experimental application of test-products: Test areas were around 3 cm in diameter. […]
Single wrinkles depth: Optical 3D measurement using a PRIMOS (Phaseshift Rapid In vivo Measurement Of Skin) compact portable system was used for this measurement. PRIMOS comact portable was applied on an area of 40×30 mm and digital fotos of the measured area were made. […] Finally, the measurement data generated were processed and then evaluated. […] With the PRIMOS software the changes in structure of the epidermis can be classified quantitatively with the aid of various standardized surface measurement parameters in accordance with DIN (Deutsche Industrie Norm, German industrial standards) and ISO (International Standards Organisation). […] The skinfold depth can be measured by determining the distances. […]

human skin [3] = experiment: In-vivo skin elasticity test (cutometer MPA 580, R2-values); settings: 4 weeks; for improvement in skin elasticity, treated area: twice a day
Description: as §3, §4
Elasticity test: The test was performed with the cutometer MPA 580 Fa. Courage+Khazaka electronics GmbH. The principle of measurement is based on the suction/elongation principle. To obtain start conditions the instrument was adjusted for 450 mbar low pressure. The suction time was defined to 5 secs. The relaxation time (abrupt loss of low pressure) was fixed to 3 secs. All measurements have been repeated three times for each test and control areas. Afterwards a mean for R2-values obtained from three independent measurements per area has been calculated. To perform measurements the instrument was adjusted for the named parameters before the test was started. All parameter adjustments described in literature as mainly used and reliable remained unchanged during the measurements. The cutometry has been performed at the beginning and at the end of the application period. R2-values have been measured and analyzed for each subject.

[4] = tested on: EpiDerm 3D-Epidermal skin models (normal human keratinocytes); experiment: MTT-Vitality-Assay, in-vitro epidermal vitality/viability; assay type: cell-based; settings: 30 μl of 5% aqueous solution once a day
Protocol: as §1, §2
EpiDerm 3D-Epidermal skin models: Nowadays in vitro test procedures are a very good alternative to animal experiments and become increasingly important for the cosmetic industry. For cosmetic products which are used over a longer period, dermatological tests for harmlessness are an essential prerequisite for a high application safety and customer satisfaction. During the development of new cosmetic products biological effects of particular active ingredients or complete formulations turn into focus of cosmetic interests. The human EpiDerm skin model is an in vitro reconstructed multilayered epithelial tissue which is cultured of normal human keratinocytes. […] The model is mitotically as well as metabolically active and expresses typical differentiation marker like pro-fillagrin 1 and cytokeratin 1/10.
This term summarizes all metabolic activities which cells need for their basic requirements as well as for growth and proliferation. An established method to measure vitality of cells and tissues is the MTT-Vitality-Assay. […] The formazan crystals precipitate into the cellular cytosol, whereby the amount of precipitate correlates quantitatively with the general cellular vitality. Therefore the MTT-Assay can be considered as an indicator for the vitality or “Fitness” of a tissue, because cellular processes like respiration and energy extraction lead to the reduction of MTT.
Aim of this experiment was to examine the potential of the test substances to vitalize the tissue. For this purpose 3D-Epidermis skin models were used. […] After incubation period the bottom of model jars were dabbed with a sterile wipe to remove excessive medium/MTT mix. Models were transferred to a new sterile 24 well plate and 2 ml isopropyl was added subsequently. To avoid evaporation, plates were sealed with parafilm, covered with tinfoil and incubated 2 h on a shaker to extract formazan crystals. Optical density of released crystals of all extracts was determined at 570 nm. Measured values were analyzed and assessed. […] The vitality was derived from averages of determined ODs whereby the water treated, optimal cultured control was set as 100% vitality [vitality: 100*(ODtest substance/ODcontrol)].

[5] = 3 days incubation, air exposed models 11.21%
[6] = crow's feet (next to the eye), 5% aqueous solution
[7] = crow's feet (next to the eyes), 5% aqueous solution
[8] = volar forearm, 5% aqueous solution
[9] = crow's feet area, 5% aqueous solution
[10] = volar forearm, 10% aqueous solution

| Structure (SMILES) | percentage of proliferative cells (nuclei) [1, 5] | percentage of proliferative cells (nuclei) ([1]; 6 days incubation, air exposed models 17.11%) | improvement in skin moisture, treated area (human skin [2]; [6]) | average improvement in skin moisture after control area deduction (human skin [2]; [7]) | average improvement in skin moisture after control area deduction (human skin [2]; [8]) | improvement in skin moisture, treated area (human skin [2]; [8]) | average improvement in the wrinkle depth (crow's feet wrinkles) | average improvement in skin elasticity after control area deduction (human skin [3]; [9]) | improvement in skin elasticity, treated area (human skin [3]; crow's feet, 5% aqueous solution) | average improvement in skin elasticity after control area deduction (human skin [3]; forearm, 5% aqueous solution) | improvement in skin elasticity, treated area (human skin [3]; [8]) | average improvement in skin moisture after control area deduction (human skin [2]; [10]) | improvement in skin moisture, treated area (human skin [2]; [10]) | vitality (MTT, water treated control = 100%) ([4]; 48 h systematical (systemic) incubation, FIG. 1) | vitality (MTT, water treated control = 100%) ([4]; 48 h topical application, FIG. 2) | vitality (MTT, water treated control = 100%) ([4]; 120 h systemical incubation, FIG. 3) | vitality (MTT, water treated control = 100%) ([4]; 120 h topical application, FIG. 4) | average improvement in skin elasticity after control area deduction (human skin [3]; forearm, 10% aqueous solution) | improvement in skin elasticity, treated area (human skin [3]; [10]) |
| --- | --- | --- | --- | --- | --- | --- | --- | --- | --- | --- | --- | --- | --- | --- | --- | --- | --- | --- | --- |
| NCCCC[C@H](NC(=O)C[C@H](N)C(=O)O)C(=O)O [β-L-aspartyl-L-lysine] | 16.33% | 22.12% | about 16.10% | 15.79% | 1.74% | about 2.05% | 20.02% | 11.21% | 11.06% | 6.18% | about 6.03% |  |  |  |  |  |  |  |  |
| N=C(N)NCCC[C@H](NC(=O)C[C@H](N)C(=O)O)C(=O)O [β-L-aspartyl-L-arginine] | 30.98% |  | about 1.873% | 1.56% | 0.82% | about 1.126% | 16.4% | 8.08% |  | 9.26% | about 9.11% | 0.56% | ~0.871% | 127.23% | 112.36% | 118.16% | 120.61% | 8.85% | ~8.70% |

— US11020337B2, “Aspartyl-dipeptides for skin care and cosmetic use” (Cysal GmbH, priority 2016, dated 2021)
